Molecules are shown by their SMILES.

The term melting point denotes the temperature, or range, at which the solid turns liquid. For the compound `O=C(O)c1cc([N+](=O)[O-])ccc1-c1ccc([N+](=O)[O-])cc1C(=O)O`, the melting point is 255 to 258 °C.
With `O=c1c2ccccc2nc(-c2cc(-c3ccc(Cl)cc3)c(N3CCOCC3)s2)n1-c1ccccc1` the figure was 229 to 230 °C; with `OCC(O)Cc1nccn1CCCc1cccc(OCc2coc(/C=C/c3ccc(F)cc3F)n2)c1` (configuration not stated), 92 to 94 °C; with `CON(C)C(=O)[C@H]1CC[C@H](NC(=O)OC(C)(C)C)CC1`, 130 to 140 °C.
In turn, `COC(=O)C=Cc1cc(Cl)ccc1C(=O)OC` showed a melting point of 87 to 89 °C.
For `Cc1cc(C)c2c(c1)nc(NC1CCN(CCO)CC1)n2Cc1nc(C)ccc1O` the value was 143 °C; for `C#CCSC(=S)N(C)C`, 57 to 59 °C; for `CSc1sc(-c2ccn(C)n2)c2c1C(=O)C(=CO)C(C)(C)C2`, 145 to 148 °C.
For `CS(=O)(=O)Cc1cc(C(=O)C=O)ccc1OCc1ccccc1` the value was 108 to 110 °C; for `O=C(NCc1ccc(I)cc1Cl)C1CC1`, 158 to 160 °C.
Compound `CON1CCC(C#N)(OC(=O)Cc2c(C)cc(C)cc2C)CC1` returned a melting point of 75 to 78 °C.
For `OCCN1CCC(=C2c3ccccc3Sc3ccc(Cl)cc32)CC1` the value was 178 to 180 °C; for `CCc1c[nH]c(-c2ccc3c(c2)N(C(C)CN2CCCC2)c2ccccc2S3)n1` (racemic), 197 °C; for `C=CCN(CC=C)C(=O)n1cnc(S(=O)(=O)CC)n1`, 39 to 42 °C.
With `O=C(O)Cn1c(C(=O)O)cc(=O)c2c1C(=O)C(O)=C2` the figure was above 270 °C; with `N#Cc1nc(-c2cnn(-c3ccc(C(F)(F)F)cc3[N+](=O)[O-])c2Br)[nH]c1C#N`, 86 to 90 °C.
With `CNS(=O)(=O)c1ccccc1Nc1nc(Nc2ccc3c(c2)CCCC(=O)N3C)ncc1Cl` the figure was 175 to 177 °C; with `Cc1cc(SCc2ccc(OCc3ccccn3)cc2)ccc1OCC(=O)O`, 150 °C; with `CCCCCCCCCCN=C=S`, 71 to 72 °C.
`CC(CN(C)C)N1c2ccccc2Sc2ccc(C(=S)NCC3CCCCC3)cc21` (racemic) displayed a melting point of 167 °C.
In the case of `CCOCc1cncc(-c2ccc3c(c2)nc(N)c2nc(COCC)n(CC(C)(C)O)c23)c1`, the melting point was 156 °C.
For `Nc1nc2ccc(OCC(F)(F)C(F)(F)F)cc2s1` the value was 147 °C.
For `CCC(COC)Nc1nc(C)nc(Cl)c1N` (configuration not stated) the value was 128 to 130 °C.
Compound `O=C(O)c1ccc(=O)n(CCCNC(=O)c2ccccn2)c1` returned a melting point of 180 to 182 °C.
For `CCCCSc1cc(C(=O)O)cc(S(N)(=O)=O)c1Cl` the value was 202 to 203 °C.
With `COC(=O)[C@@H]1CCCN1S(=O)(=O)c1ccc(C)c(C(=O)Cl)c1C` the figure was 92 °C.
For `CC1(C)CC(OC(=O)CCl)CC(C)(C)N1OC1CCCCC1` the value was 62 to 64 °C.
For `O=Cc1cc(Cl)ccc1Sc1ccccc1F`, the melting point lay in the range of 85.5 to 88 °C.
As to `CCCCCC(=O)N(NC(=O)c1ccccc1)C(C)(C)C`, the melting point was 117 to 118 °C.
With `COc1ccccc1Nc1c(C(=O)c2ccccc2)cnc2c(OC)cccc12` the figure was 200 to 202 °C; with `CCCSc1ccc2cc[nH]c2c1`, 54 to 55 °C.
For `COc1ccc2c(n1)C1(CO2)C(=O)Nc2cccc(Br)c21` (configuration not stated) the value was 265 to 268 °C.
For `CCCCCCc1ccc(-c2ccc(C3CCC(C#N)(CCCCCC)CC3)cc2)cc1` (configuration not stated) the value was 66 °C.
As for `O=c1cc(O)nc2cc(C(c3c(F)ccc(F)c3F)S(=O)(=O)CCC(F)(F)F)c(Cl)cn12` (configuration not stated), the melting point was found to be 264 °C.
With `Cn1cnc2cc(NC(=O)c3cc4cc(F)ncc4n3Cc3cccc(F)c3)ccc21` the figure was 279 to 281 °C.
Consider `Cc1csc(-c2cc(=O)n(C)c3ccc(C(=O)c4ccc(Cl)cc4)cc23)n1`, for which the melting point turned out to be 236 °C.
For `CCOc1cc2cc(COC(C)=O)c(COC(C)=O)c(-c3ccncc3)c2cc1OCC` the value was 115 to 116 °C; for `Cc1cc(C)c(Nc2nc(C)ncc2S(=O)(=O)c2ccc(C#N)cc2)c(C)c1`, 258 to 260 °C.
For `CCOC(=O)C(NC(C)=O)(C(=O)OCC)C1=Nc2ccc(Cl)cc2C(c2ccccc2Cl)=NC1` the value was 153 to 155 °C; for `C[C@H](NC(=O)OC(C)(C)C)C(=O)OC[C@@H]1CCCN1c1cccc2c1C(=O)c1ccccc1C2=O`, 110 °C.
With `O=C(O)CN1C(=O)C(=CC=Cc2ccccc2)SC1=S` the figure was above 217 °C.
Consider `CC1(C)CCC(C)(C)c2cc(C(C(=O)O)C(=O)Nc3ccc(C(=O)O)cc3)ccc21` (configuration not stated), for which the melting point fell in the range of 213 to 214 °C.
With `C[Si](Cn1ncnc1S)(c1ccc(F)cc1)c1ccc(F)cc1` the figure was 97 to 99 °C; with `Clc1ccc(OCc2ccccc2)c(Br)c1`, 49 to 50.5 °C; with `O=C(Nc1ccc(Cl)nc1)c1cc2cc(F)ccc2n1Cc1ccncc1`, 244 to 246 °C.
For `CCCc1ncc(CC(=O)O)s1`, the melting point stood at 95 °C.
For `CCOc1cccc(-c2ccc(C3=CCN(S(=O)(=O)CC(=O)OC)CC3)cc2)c1` the value was 120 to 122 °C; for `CCCN(Cc1ccc(-c2ccccc2-c2nnn[nH]2)cc1)c1ncccc1C(=O)OC`, 146 to 147 °C.
For `COc1ccc(-n2cnnc2S(C)(=O)=O)cc1` the value was 191 °C; for `NC(=O)c1[nH]c2ccc(Cl)cc2c1S(=O)(=O)c1ccccc1`, 253 to 254 °C; for `CCCCCCCCCCC1Cc2ccc(C(=O)O)cc2N1` (racemic), 123 to 125 °C.
With `Cc1c(Cl)cccc1S(=O)(=O)n1c(CCCC(=O)O)cc2nc(Cl)ccc21` the figure was 127 to 128 °C; with `O=C(NCc1ccccc1)c1ccc(OC2CCCC2)c2oc3ccccc3c12`, 172 to 175 °C.
Take `COC(=O)c1ccc2cc(C(=O)c3ccc4c(c3)C3(C)C5(C)CCC(C5)C3(C)O4)ccc2c1` (configuration not stated): the melting point amounted to 146 °C.
With `CN1Cc2c(Cl)ncn2-c2ccc(F)cc2C1=O` the figure was 217 to 218 °C; with `CCCCCCC(C)(C)c1cc(OC)c(C2=C[C@@]3(C)CC[C@@H]2C3(C)C)c(OC)c1`, 32 to 33 °C.
With `CC12CCCCC1(O)CCC1C2CCC2(C)C1CC13OCCOC12OCCO3` (configuration not stated) the figure was 160 to 162 °C; with `COc1ccc(CNc2cc3c(Nc4ccc(F)c(C(F)(F)F)c4)ncnc3cn2)cc1`, 202 to 204 °C.
With `Cn1c(=O)c(C#N)c(N2CCNCC2)c2cc(F)ccc21` the figure was 211 °C; with `O=C(O)c1ccc(N2C(=O)C3C4C=CC(CC4)C3C2=O)cc1` (configuration not stated), 269 °C; with `O=c1c(Br)c(OCc2ccccc2)ccn1Cc1ccc(OCc2ccccc2)cc1`, 138 to 144 °C.
For the compound `CSc1cc2c(cc1C(F)(F)F)N(C(=O)Nc1cccc(C(=O)Nc3cccnc3)c1)CC2`, the melting point is 195 to 197 °C.
For `COc1ccc(/C=C/S(=O)(=O)CS(=O)(=O)/C=C/c2ccc(O)c(OC)c2)cc1O` the value was 148 to 150 °C; for `CC(CCCNc1ccccc1)C1CC=C2C3=C(CCC21C)C1(C)CCC(O)C(C)(C)C1CC3` (configuration not stated), 178 to 180 °C.
For `CCCCCCCCCCCC(=O)N[C@H]1CCCNC(=O)C1` the value was 93 to 94 °C; for `Cc1sc2cc3ccccc3c(-c3ccc(O)c(C4CCCC4)c3)c2c1C`, 156 to 158 °C; for `CC(C)(C)C1C(O)=C(C2=NS(=O)(=O)c3c(NS(C)(=O)=O)cccc32)C(=O)N1Cc1ccc(F)cc1` (configuration not stated), 245 to 250 °C.
For the compound `CCCCCCCCc1ccc(C(O)CC(CO)(CO)NC(C)=O)cc1` (configuration not stated), the melting point was 118 to 119 °C.
With `CN(C)CCN(C1CCN(C)CC1)S(=O)(=O)c1ccc(Nc2nccc(Nc3ccc(F)cc3)n2)cc1` the figure was 135 to 137 °C; with `C=CCC(CC=C)(CC=C)c1ccc(-c2nc3cc4c(cc3n2CCC)C(=N)NC4=N)cc1`, 230 to 232 °C.
`c1ccc2c(c1)Cc1ccncc1N1OC(CN3CCOCC3)CC21` (configuration not stated) came in with a melting point of 46 °C.
For `Clc1ccc(OCc2nc3c(OCc4ccccc4)cccc3n2CCCC2CCN(CCCN3CCCCC3)CC2)cc1` the value was 58 to 60 °C; for `CCCCCCCCOc1ccc(-c2ccc(Br)cc2)cc1`, 120 °C.
For `CN(C)c1ccc(S(=O)(=O)N2CC(OC(=O)C(C)(C)C)CC2=O)cc1` (configuration not stated) the value was 117 to 118 °C; for `Cc1c2ccnc(Cl)c2cc2c1[nH]c1ccncc12`, above 263 °C.
With `O=c1c2cc(F)ccc2nc(CNc2ncccn2)n1-c1ccccc1Cl`, the melting point lay within 182 to 185 °C.
For `CCn1nc(-c2cccs2)c(C(=O)OCCOC(C)=O)c(Nc2cncc3ccccc23)c1=O` the value was 155 to 157 °C.
With `O=C(O)Cn1cc(Cc2nc3cc(C(F)(F)F)ccc3s2)c2ccccc21` the figure was 233 to 234 °C.
For `CCOC(=O)CN1CCC(=C2c3ccc(Cl)cc3CCc3cccnc32)CC1` the value was 80 to 82 °C; for `Cc1cc2c(Oc3ccccc3Cl)cccc2[nH]1`, 138 to 140 °C; for `CCc1cc2cc(F)ccc2[nH]1`, 41 to 42 °C.
In the case of `CCOC(=O)NC(C(=O)NN(Cc1ccc(-c2cncs2)cc1)CC(O)C(Cc1ccccc1)NC(=O)C(NC(=O)OC)C(C)CC)C(C)C` (configuration not stated), the melting point lay within 200 to 203 °C.
For `CC(C)(C)c1cc(C[PH](=O)O)cc(C(C)(C)C)c1O` the value was 147 to 149 °C.
With `CCCC(=O)OCC(=O)C1(OC(=S)CC)CCC2C3CC(C)C4=CC(=O)C=CC4(C)C3C(O)CC21C` (configuration not stated) the figure was 126 to 128 °C; with `O=C1C(Cl)C(CCl)CN1c1cccc(Cl)c1` (configuration not stated), 93 to 94 °C; with `CCN1OCCC(=Cc2cc(C(C)(C)C)c(O)c(C(C)(C)C)c2)C1=O`, 166 to 167 °C.
With `COc1c(C)c(C)cc(C)c1C(O)(c1ccc(C)cc1)C(C)C` (configuration not stated) the figure was 103 to 104 °C.

For the origin of these results see a melting point compilation (Tetko et al.; mined from patent text by program, amines drawn as free bases though some values may be those of a salt).
